Assays:
[1] = xn = mol fraction of the nth substance listed; details: Ring tensiometer
[2] = Ring tensiometer

[F][La]([F])[F] [lanthanum trifluoride] + [F-].[Li+]
surface tension liquid-gas [mN/m], [1]
Details	1223 K	1248 K	1273 K	1298 K	1323 K	1348 K	1373 K	1398 K	1423 K
x1 = 0.2	257.3	254.9	251.8	249.3	247	244.4	242.1	239.2	236.9
x1 = 0.25	264.7	262.1	259	256.3	253.6	251.2	248.8	246.7	243.9
x1 = 0.3	272.2	269.5	267.2	264.9	262.1	258.9	256.5	253.8	251.3
x1 = 0.35	–	–	–	274.2	271.4	268.3	265	262.2	259.8
x1 = 0.4	–	–	–	–	281.7	279.1	276.5	274	270.9

[F][Nd]([F])[F] [neodymium fluoride] + [F-].[Li+]
surface tension liquid-gas [mN/m], [1]
Details	1223 K	1248 K	1273 K	1298 K	1323 K	1348 K	1373 K	1398 K	1423 K
x1 = 0.2	249.1	247.2	244.3	241.9	239.6	237.3	235.2	232.9	230.8
x1 = 0.25	258.3	255.7	253.5	250.9	249.3	246.3	243.6	240.4	239.1
x1 = 0.3	267.8	264.9	262.7	259.5	257	254.5	251.6	249.3	246.9
x1 = 0.35	279.2	276.8	273.3	270.4	268.1	266	262.7	260.4	257.3
x1 = 0.4	–	–	284.1	280.7	279.6	276.8	274.1	272.1	268.2

[Cl-].[K+] [potassium chloride]
Details	surface tension liquid-gas [mN/m]
[2], 1230 K	86.14

[F-].[Na+] [sodium fluoride]
Details	surface tension liquid-gas [mN/m]
[2], 1325 K	187.14

— the NIST ThermoML archive (doi:10.1016/j.tca.2016.03.033)
